# Test system: MDA-MB-231 cells
# Assay: Extracellular lactate production inhibition after 4 h, MDA-MB-231
# Conditions: Homo sapiens, MDA-MB-231
row,SMILES,IC50 [nM]
1,"CN(c1ccccc1C#Cc1ccc(C(=O)O)cc1)S(=O)(=O)c1ccc2ccccc2c1 [Compound 4, 4-{2-[2-(N-methylnaphthalene-2-sulfonamido)phenyl]ethynyl}benzoic acid]",100 to 1000
2,"O=C(O)c1ccc(C#Cc2ccccc2NS(=O)(=O)c2ccc3ccccc3c2)cc1O [Compound 5, 2-hydroxy-4-{2-[2-(naphthalene-2-sulfonamido)phenyl]ethynyl}benzoic acid]",1000 to 100000
3,"O=C(O)c1ccc(C#Cc2ccccc2CS(=O)(=O)c2ccc3ccccc3c2)cc1 [Compound 6, 4-(2-{2-[(naphthalene-2-sulfonyl)methyl]phenyl}ethynyl)benzoic acid]",100 to 1000
4,"COc1ccc(S(=O)(=O)Nc2ccccc2C#Cc2ccc(C(=O)O)cc2)c2ccccc12 [Compound 8, 4-{2-[2-(4-methoxynaphthalene-1-sulfonamido)phenyl]ethynyl}benzoic acid]",100 to 1000
5,"COc1cccc(S(=O)(=O)Nc2ccccc2C#Cc2ccc(C(=O)O)c(C)c2)c1 [Compound 9, 4-{2-[2-(3-methoxybenzenesulfonamido)phenyl]-ethynyl}-2-methylbenzoic acid]",1000 to 100000
6,"Cc1cc(C#Cc2ccccc2NS(=O)(=O)c2ccc3ccccc3c2)ccc1C(=O)O [Compound 10, 2-methyl-4-{2-[2-(naphthalene-2-sulfonamido)phenyl]ethynyl}benzoic acid]",100 to 1000
7,"COc1cccc(S(=O)(=O)Nc2ccccc2C#Cc2ccc(C(=O)O)nc2)c1 [Compound 12, 5-{2-[2-(3-methoxybenzenesulfonamido)phenyl]-ethynyl}pyridine-2-carboxylic acid]",1000 to 100000
8,"O=C(O)c1ccc(C#Cc2ccccc2NS(=O)(=O)c2ccc3ccccc3c2)cc1F [Compound 14, 2-fluoro-4-{2-[2-(naphthalene-2-sulfonamido)phenyl]ethynyl}benzoic acid]",100 to 1000
9,"O=C(O)c1ccc(C#Cc2ccc(C(F)(F)F)cc2NS(=O)(=O)c2ccc3ccccc3c2)cc1 [Compound 17, 4-{2-[2-(naphthalene-2-sulfonamido)-4-(trifluoromethyl)phenyl]ethynyl}benzoic acid]",100 to 1000
10,"COc1ccc(S(=O)(=O)Nc2ccccc2C#Cc2ccc(C(=O)O)c(C)c2)c2ccccc12 [Compound 18, 4-{2-[2-(4-methoxynaphthalene-1-sulfonamido)phenyl]ethynyl}-2-methylbenzoic acid]",100 to 1000
11,"O=C(O)c1ccc(C#Cc2ccccc2C[S+]([O-])c2ccc3ccccc3c2)cc1 (stereo not drawn) [Compound 20, 4-(2-{2-[(naphthalene-2-sulfinyl)methyl]phenyl}ethynyl)benzoic acid]",1000 to 100000
12,"COc1ccc(S(=O)(=O)Nc2ccccc2C#Cc2ccc(C(=O)O)c(C#N)c2)c2ccccc12 [Compound 21, 2-cyano-4-{2-[2-(4-methoxynaphthalene-1-sulfonamido)phenyl]ethynyl}benzoic acid]",1000 to 100000
13,"N#Cc1cc(C#Cc2ccccc2NS(=O)(=O)c2ccc3ccccc3c2)ccc1C(=O)O [Compound 24, 2-cyano-4-{2-[2-(naphthalene-2-sulfonamido)phenyl]ethynyl}benzoic acid]",1000 to 100000
14,"COc1ccc(S(=O)(=O)Nc2ccc(F)cc2C#Cc2ccc(C(=O)O)cc2)c2ccccc12 [Compound 25, 4-{2-[5-fluoro-2-(4-methoxynaphthalene-1-sulfonamido)phenyl]ethynyl}benzoic acid]",100 to 1000
15,"COc1ccc(S(=O)(=O)Nc2ccccc2C#Cc2cc(F)c(C(=O)O)c(F)c2)c2ccccc12 [Compound 27, 2,6-difluoro-4-{2-[2-(4-methoxynaphthalene-1-sulfonamido)phenyl]ethynyl}benzoic acid]",1000 to 100000
16,"O=C(O)c1ccc(C#Cc2ccccc2NS(=O)(=O)c2ccc3ccccc3c2)cc1Cl [Compound 28, 2-chloro-4-{2-[2-(naphthalene-2-sulfonamido)phenyl]ethynyl}benzoic acid]",100 to 1000
17,"O=C(O)c1c(F)cc(C#Cc2ccccc2NS(=O)(=O)c2ccc3ccccc3c2)cc1F [Compound 29, 2,6-difluoro-4-{2-[2-(naphthalene-2-sulfonamido)phenyl]ethynyl}benzoic acid]",1000 to 100000
18,"O=C(O)c1ccc(C#Cc2ccccc2NS(=O)(=O)c2ccc3ccccc3c2)c(F)c1 [Compound 30, 3-fluoro-4-{2-[2-(naphthalene-2-sulfonamido)phenyl]ethynyl}benzoic acid]",100 to 1000
19,"COc1ccc(S(=O)(=O)Nc2ccccc2C#Cc2ccc(C(=O)O)nc2)c2ccccc12 [Compound 31, 5-{2-[2-(4-methoxynaphthalene-1-sulfonamido)phenyl]ethynyl}pyridine-2-carboxylic acid]",100 to 1000
20,"O=C(O)c1ccc(C#Cc2cccc(F)c2NS(=O)(=O)c2ccc3ccccc3c2)cc1 [Compound 32, 4-{2-[3-fluoro-2-(naphthalene-2-sulfonamido)phenyl]ethynyl}benzoic acid]",100 to 1000
21,"COc1cc(C#Cc2ccccc2NS(=O)(=O)c2ccc(OC)c3ccccc23)ccc1C(=O)O [Compound 33, 2-methoxy-4-{2-[2-(4-methoxynaphthalene-1-sulfonamido)phenyl]ethynyl}benzoic acid]",100 to 1000
22,"CCN(c1ccccc1C#Cc1ccc(C(=O)O)cc1)S(=O)(=O)c1ccc2ccccc2c1 [Compound 36, 4-{2-[2-(N-ethylnaphthalene-2-sulfonamido)phenyl]ethynyl}benzoic acid]",1000 to 100000
23,"COc1ccc(S(=O)(=O)Nc2ccc(F)cc2C#Cc2ccc(C(=O)O)nc2)c2ccccc12 [Compound 37, 5-{2-[5-fluoro-2-(4-methoxynaphthalene-1-sulfonamido)phenyl]ethynyl}pyridine-2-carboxylic acid]",100 to 1000
24,"COc1ccc(S(=O)(=O)Nc2ccccc2C#Cc2ccc(C(=O)O)nc2)c(C)c1C [Compound 42, 5-{2-[2-(4-methoxy-2,3-dimethylbenzenesulfonamido)phenyl]-ethynyl}pyridine-2-carboxylic acid]",100 to 1000
25,"COc1ccc(S(=O)(=O)Nc2ccccc2C#Cc2ccc(C(=O)O)c(F)c2)c2ccccc12 [Compound 45, 2-fluoro-4-{2-[2-(4-methoxynaphthalene-1-sulfonamido)phenyl]ethynyl}benzoic acid]",100 to 1000
26,"Cc1cc(C#Cc2ccccc2NS(=O)(=O)c2ccc3ccccc3c2)cnc1C(=O)O [Compound 49, 3-methyl-5-{2-[2-(naphthalene-2-sulfonamido)phenyl]ethynyl}pyridine-2-carboxylic acid]",100 to 1000

# Continued, values first:
row,IC50 [nM],SMILES
1,1000 to 100000,"O=C(O)c1ccc(C#Cc2ccccc2NS(=O)(=O)c2ccc3c(c2)CCO3)cc1 [Compound 3, 4-{2-[2-(2,3-dihydro-1-benzofuran-5-sulfonamido)phenyl]ethynyl}benzoic acid]"
2,100 to 1000,"O=C(O)c1ccc(C#Cc2ccccc2NS(=O)(=O)c2ccc3c(c2)CCCC3)cc1 [Compound 7, 4-{2-[2-(5,6,7,8-tetrahydronaphthalene-2-sulfonamido)phenyl]ethynyl}benzoic acid]"
3,100 to 1000,"COc1ccc(S(=O)(=O)Nc2ccccc2C#Cc2ccc(C(=O)O)cc2)c2c1CCCC2 [Compound 11, 4-{2-[2-(4-methoxy-5,6,7,8-tetrahydronaphthalene-1-sulfonamido)phenyl]ethynyl}benzoic acid]"
4,100 to 1000,"O=C(O)c1ccc(C#Cc2cc(F)ccc2NS(=O)(=O)c2ccc3ccccc3c2)cc1 [Compound 15, 4-{2-[5-fluoro-2-(naphthalene-2-sulfonamido)phenyl]ethynyl}benzoic acid]"
5,1000 to 100000,"O=C(NO)c1ccc(C#Cc2ccccc2NS(=O)(=O)c2ccc3ccccc3c2)cc1 [Compound 16, N-hydroxy-4-{2-[2-(naphthalene-2-sulfonamido)phenyl]ethynyl}benzamide]"
6,100 to 1000,"COc1ccc(C#Cc2ccc(C(=O)O)cc2)c(NS(=O)(=O)c2ccc3ccccc3c2)c1 [Compound 19, 4-{2-[4-methoxy-2-(naphthalene-2-sulfonamido)phenyl]ethynyl}benzoic acid]"
7,100 to 1000,"Cc1c(S(=O)(=O)Nc2ccccc2C#Cc2ccc(C(=O)O)cc2)sc2ccc(Cl)cc12 [Compound 22, 4-{2-[2-(5-chloro-3-methyl-1-benzothiophene-2-sulfonamido)phenyl]ethynyl}benzoic acid]"
8,100 to 1000,"COc1ccc(S(=O)(=O)Nc2ccccc2C#Cc2ccc(C(=O)O)cc2)c(Cl)c1Cl [Compound 23, 4-{2-[2-(2,3-dichloro-4-methoxybenzenesulfonamido)phenyl]-ethynyl}benzoic acid]"
9,1000 to 100000,"O=C(O)c1ccc(C#Cc2ccccc2NS(=O)(=O)c2cnc(Cl)c(Br)c2)cc1 [Compound 34, 4-{2-[2-(5-bromo-6-chloropyridine-3-sulfonamido)phenyl]ethynyl}benzoic acid]"
10,1000 to 100000,"O=C(O)c1ccc(C#Cc2ccccc2NS(=O)(=O)c2cccc3ncccc23)cc1 [Compound 35, 4-{2-[2-(quinoline-5-sulfonamido)phenyl]ethynyl}benzoic acid]"
11,1000 to 100000,"O=C(O)c1ccc(C#Cc2ccccc2NS(=O)(=O)c2cnc3ccccc3c2)cc1 [Compound 40, 4-{2-[2-(quinoline-3-sulfonamido)phenyl]ethynyl}benzoic acid]"
12,100 to 1000,"Cc1ccc(C#Cc2ccc(C(=O)O)cc2)c(NS(=O)(=O)c2ccc3ccccc3c2)n1 [Compound 41, 4-{2-[6-methyl-2-(naphthalene-2-sulfonamido)pyridin-3-yl]ethynyl}benzoic acid]"
13,100 to 1000,"O=C(O)c1ccc(C#Cc2ccccc2NS(=O)(=O)c2ccc3cc(Cl)ccc3c2)cc1 [Compound 43, 4-{2-[2-(6-chloronaphthalene-2-sulfonamido)phenyl]ethynyl}benzoic acid]"
14,100 to 1000,"Cc1ccc(C#Cc2ccc(C(=O)O)cc2)c(NS(=O)(=O)c2ccc3ccccc3c2)c1 [Compound 46, 4-{2-[4-methyl-2-(naphthalene-2-sulfonamido)phenyl]ethynyl}benzoic acid]"
15,100 to 1000,"COc1ccc(S(=O)(=O)Nc2ccccc2C#Cc2ccc(C(=O)O)cc2)c(C)c1 [Compound 47, 4-{2-[2-(4-methoxy-2-methylbenzenesulfonamido)phenyl]ethynyl} benzoic acid]"
16,100 to 1000,"COc1ncc(S(=O)(=O)Nc2ccccc2C#Cc2ccc(C(=O)O)cc2)cc1Br [Compound 48, 4-{2-[2-(5-bromo-6-methoxypyridine-3-sulfonamido)phenyl]ethynyl}benzoic acid]"

# — patent US12351570B2 (MERCK PATENT GMBH, priority 2018, dated 2025)
